The source of these data is patent US10053428B2, “5-aminotetrahydroquinoline-2-carboxylic acids and their use” (BAYER PHARMA AKTIENGESELLSCHAFT, priority 2012, dated 2018).

The subject of this assay is recombinant guanylate cyclase reporter cell line. The assay is described as follows: sGC-activating activity in the CHO reporter cell in vitro. The format is cell-based. The settings on record: read-out: MEC (minimum effective concentration). The protocol:
B-2. Action at a Recombinant Guanylate Cyclase Reporter Cell Line
The cellular action of the compounds according to the invention is determined at a recombinant guanylate cyclase reporter cell line, as described in F. Wunder et al., Anal. Biochem. 32, 104-112 (2005).

For `O=C(O)c1ccc(CCN(CCc2cc(F)ccc2OCc2ccc(CCc3ccc(F)cc3)cc2)C2CCCc3nc(C(=O)O)ccc32)cc1` (single isomer, unassigned) [Example 42], the minimal effective concentration turned out to be 3 nM. For `O=C(O)CCCCN(CCc1ccccc1OCc1ccc(-c2ccc(C(F)(F)F)cc2)cc1Cl)C1CCCc2nc(C(=O)O)ccc21` (single isomer, unassigned) [Example 7], the minimal effective concentration worked out at 0.3 nM. Take `O=C(O)c1ccc(CCN(CCc2cc(F)ccc2OCc2ccc(CCc3ccc(F)cc3)cc2)C2CCCc3nc(C(=O)O)ccc32)cc1` (single isomer, unassigned; enantiomer 2) [Example 43, 5-([2-(4-Carboxyphenyl)ethyl]{2-[5-fluoro-2-({4-[2-(4-fluorophenyl)ethyl]benzyl}oxy)phenyl]-ethyl}amino)-5,6,7,8-tetrahydroquinoline-2-carboxylic acid (Enantiomer 2)]: the minimal effective concentration was found to be 0.3 nM. The figure for `O=C(O)c1ccc(CCN(CCc2cc(F)ccc2OCc2ccc(-c3ccc(C(F)(F)F)cc3)cc2Cl)C2CCCc3nc(C(=O)O)ccc32)cc1` (single isomer, unassigned) [Example 34] is 1 nM; for `O=C(O)c1ccc(CCN(CCc2ccccc2OCc2ccc(-c3nc4cc(OC(F)(F)F)ccc4o3)cc2)C2CCCc3nc(C(=O)O)ccc32)cc1` (single isomer, unassigned) [Example 29] it is 3 nM. The figure for `O=C(O)CCCCN(CCc1ccccc1OCCCCCc1ccccc1)C1CCCc2nc(C(=O)O)ccc21` (single isomer, unassigned) [Example 10] is 300 nM; for `Cc1ccc2oc(-c3ccc(COc4ccccc4CCN(CCc4ccc(C(=O)O)cc4)C4CCCc5nc(C(=O)O)ccc54)cc3)nc2c1` (single isomer, unassigned) [Example 21] it is 100 nM. Take `O=C(O)CCCCN(CCc1ccccc1OCc1ccc(-c2ccc(C(F)(F)F)cc2)cc1Cl)C1CCCc2nc(C(=O)O)ccc21` (single isomer, unassigned) [Example 8]: the minimal effective concentration was 3 nM. With `N#Cc1ccc2oc(-c3ccc(COc4ccccc4CCN(CCCCC(=O)O)C4CCCc5nc(C(=O)O)ccc54)cc3)nc2c1` (single isomer, unassigned) [Example 31], the minimal effective concentration came out at 10 nM. `O=C(O)c1ccc(CCN(CCc2ccccc2OCc2ccc(CCc3ccccc3)cc2)C2CCCc3nc(C(=O)O)ccc32)cc1` (single isomer, unassigned; enantiomer 2) [Example 38, 5-{[2-(4-Carboxyphenyl)ethyl][2-(2-{[4-(2-phenylethyl)benzyl]oxy}phenyl)ethyl]amino}-5,6,7,8-tetrahydroquinoline-2-carboxylic acid (Enantiomer 2)]: the minimal effective concentration amounted to 0.3 nM. For the compound `N#Cc1ccc2oc(-c3ccc(COc4ccccc4CCN(CCc4ccc(C(=O)O)cc4)C4CCCc5nc(C(=O)O)ccc54)cc3)nc2c1` (single isomer, unassigned) [Example 30], the minimal effective concentration was determined as 1 nM.

Regarding `O=C(O)CCCCN(CCc1cc(F)ccc1OCc1ccc(-c2nc3cc(Cl)ccc3o2)cc1)C1CCCc2nc(C(=O)O)ccc21` (single isomer, unassigned) [Example 36], the minimal effective concentration worked out at 30 nM. `CC(C)(C)c1ccc(COc2ccccc2CCN(CCCCC(=O)O)C2CCCc3nc(C(=O)O)ccc32)cc1` (single isomer, unassigned) [Example 3]: the minimal effective concentration is 100 nM. For the compound `O=C(O)CCCCN(CCc1ccccc1OCCCCCc1ccccc1)C1CCCc2nc(C(=O)O)ccc21` (single isomer, unassigned) [Example 9], the minimal effective concentration was 10 nM.

For `CCC(=O)N1CCC(c2ccc(COc3ccccc3CCN(CCCCC(=O)O)C3CCCc4nc(C(=O)O)ccc43)cc2)CC1` (stereo not drawn) [Example 5], the minimal effective concentration was determined as 100 nM.
